Laboratory results reported in ChEMBL document CHEMBL1138517, “Synthesis and structure-activity relationship of griseofulvin analogues as inhibitors of centrosomal clustering in cancer cells” (J Med Chem, 2009).

Assay: Inhibition of centrosomal clustering in human SCC114 cells expressing GFPalpha-tubulin assessed as mitotic cells with multipolar spindles by fluorescence microscopy
Format: functional, cell-based

SMILES | IC50
COC1=C/C(=N\N(C)C)C[C@@H](C)[C@]12Oc1c(Cl)c(OC)cc(OC)c1C2=O | 27 µM
CCOc1cc(OC)c(Cl)c2c1C(=O)[C@@]1(O2)C(OC)=CC(=O)C[C@H]1C | > 100 µM
COc1cc(OC)c2c(c1Cl)O[C@]1(C2=O)C(OCc2ccccc2)=C/C(=N\O)C[C@H]1C | 0.9 µM
COC1=C/C(=N\O)C[C@@H](C)[C@]12Oc1c(Cl)c(OC)cc(OC)c1C2=O | 17 µM
COC1=C[C@@H](O)C[C@@H](C)[C@]12Oc1c(Cl)c(OC)cc(OC)c1C2=O | > 100 µM
COC1=CC(=O)C[C@@H](C)[C@]12Oc1c(Cl)c(OC)cc(OC)c1C2=O [GRISEOFULVIN] | 24 µM
COc1cc(OC)c2c(c1Cl)O[C@@]1(C2=O)[C@H](C)C[C@H](O)C[C@@H]1OC | > 100 µM
CCCOC1=CC(=O)C[C@@H](C)[C@]12Oc1c(Cl)c(OC)cc(OC)c1C2=O | 6.6 µM
COC1=CC(=O)C[C@@H](C)[C@]12Oc1c(Cl)c(OC)cc(OCc3ccccc3)c1C2=O | > 100 µM
COc1cc(OC)c2c(c1Cl)O[C@]1(C2=O)C(OCc2ccc(C)cc2)=CC(=O)C[C@H]1C | 0.9 µM
COc1cc(OC)c2c(c1Cl)O[C@@]1(C(=O)C=C(O)C[C@H]1C)C2=O | > 100 µM
COc1cc(OC)c2c(c1Cl)O[C@]1(C2=O)C(OCc2ccccc2)=CC(=O)C[C@H]1C | 0.9 µM
COc1cc(OC)c2c(c1Cl)O[C@]1(C2=O)C(OCc2ccccc2)=C(I)C(=O)C[C@H]1C | > 100 µM
CCOC1=CC(=O)C[C@@H](C)[C@]12Oc1c(Cl)c(OC)cc(OC)c1C2=O | 6.6 µM
CCCOC1=C(I)C(=O)C[C@@H](C)[C@]12Oc1c(Cl)c(OC)cc(OC)c1C2=O | 2 µM
COc1cc(OC)c2c(c1Cl)O[C@]1(C2=O)C(OC(C)C)=CC(=O)C[C@H]1C | 6.8 µM
COC1=CC(=O)C[C@@H](C)[C@]12Oc1c(Cl)c(OC)c([N+](=O)[O-])c(OC)c1C2=O | > 100 µM
COc1cc(OC)c2c(c1Cl)O[C@]1(C2=O)C(OCCc2ccccc2)=CC(=O)C[C@H]1C | 15 µM
COc1cc(OC)c2c(c1Cl)O[C@]1(C2=O)C(SCc2ccccc2)=CC(=O)C[C@H]1C | 1.3 µM
COc1cc(OC)c2c(c1Cl)O[C@@]1(C(=O)C(Cc3ccccc3)=C(O)C[C@H]1C)C2=O | > 100 µM
COC1=C(I)C(=O)C[C@@H](C)[C@]12Oc1c(Cl)c(OC)cc(OC)c1C2=O | > 100 µM

Continued, values first:

IC50 | SMILES
2.8 µM | CCCCCOC1=CC(=O)C[C@@H](C)[C@]12Oc1c(Cl)c(OC)cc(OC)c1C2=O
> 100 µM | COC1=CC(=O)[C@@]2(Oc3c(Cl)c(OC)cc(OC)c3C2=O)[C@H](C)C1 [ISOGRISEOFULVIN]
2.9 µM | COc1cc(OC)c2c(c1Cl)O[C@]1(C2=O)C(OCc2ccc(-c3ccccc3)cc2)=CC(=O)C[C@H]1C
4 µM | CCCCCCOC1=CC(=O)C[C@@H](C)[C@]12Oc1c(Cl)c(OC)cc(OC)c1C2=O
1.5 µM | COc1cc(OC)c2c(c1Cl)O[C@]1(C2=O)C(Oc2ccccc2)=CC(=O)C[C@H]1C
> 100 µM | COc1cc(OC)c2c(c1Cl)O[C@]1(C2=O)C(=O)C(C)(C)C(=O)C[C@H]1C
1.8 µM | COc1cc(OC)c2c(c1Cl)O[C@]1(C2=O)C(OCC2CC2)=CC(=O)C[C@H]1C
> 100 µM | COC1=CC(=O)C[C@@H](C)[C@]12Oc1c(Cl)c(OC)cc(O)c1C2=O
1.3 µM | COc1cc(OC)c2c(c1Cl)O[C@]1(C2=O)C(OC2CCCC2)=CC(=O)C[C@H]1C
2.5 µM | CCCCOC1=CC(=O)C[C@@H](C)[C@]12Oc1c(Cl)c(OC)cc(OC)c1C2=O
> 100 µM | COC1=CC(=O)C[C@@H](C)[C@]12Oc1c(Cl)c(OC)c(N)c(OC)c1C2=O
3.7 µM | COc1cc(OC)c2c(c1Cl)O[C@]1(C2=O)C(OCC23CC4CC(CC(C4)C2)C3)=CC(=O)C[C@H]1C
> 100 µM | COC1=CC(=O)C[C@@H](C)[C@]12Oc1c(Cl)c(OC)c(NCc3ccccc3)c(OC)c1C2=O
